Patent EP3156398A1, “AGONISTS OF THE CHEMOKINE RECEPTOR CXCR3” (Friedrich-Alexander-Universität Erlangen-Nürnberg, priority 2015, dated 2017)
“Also recorded” adds a separate entry of the source.

Assays:
[1] = target: T1, FLAG-CXCR3 (Homo sapiens, UniProt P49682); assay: ELISA based internalization assay; type: cell-based; conditions: CXCL11 100 nM, modulators 10 µM, 1h at 37°C; Figure 4B
T1 construct: expressed in transfected cells; host or cells: HEK293T cells, transient
T1 sequence (P49682 1-368): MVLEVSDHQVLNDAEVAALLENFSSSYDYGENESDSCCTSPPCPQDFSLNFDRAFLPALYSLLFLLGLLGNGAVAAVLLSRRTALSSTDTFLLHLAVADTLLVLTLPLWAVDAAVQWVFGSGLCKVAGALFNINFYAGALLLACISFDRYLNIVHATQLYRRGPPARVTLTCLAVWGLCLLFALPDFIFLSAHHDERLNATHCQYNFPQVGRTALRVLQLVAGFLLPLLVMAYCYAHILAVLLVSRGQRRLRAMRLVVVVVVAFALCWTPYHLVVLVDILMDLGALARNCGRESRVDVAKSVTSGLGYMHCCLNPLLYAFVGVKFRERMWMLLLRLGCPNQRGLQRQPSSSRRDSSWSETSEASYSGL
Description: Enzyme-linked immunosorbent assay based internalization assay. The day after transfection with FLAG-CXCR3, cells were trypsinized, resuspended into fresh culture medium and plated in poly(D-lysine)-coated 48-well assay plates. 48h after transfection the medium was replaced by fresh DMEM w/o serum containing one concentration of the endogenous ligand CXCL11 (100 nM) or the positive allosteric modulators (10 µM) and incubated for 1h at 37°C. The cells were fixed with 4% formaldehyde solution and stained with monoclonal Anti-Flag antibody (Sigma-Aldrich Life Science, St. Louis, MO) and subsequently with Anti-Mouse IgG-Peroxidase Antibody produced in rabbit. […] The reaction was stopped with 1M H2SO4 and the resulting color was detected at 492 nm using a microplate reader Clariostar (BMG labtech, Ortenberg, Germany).
(§1) The effect of FAUC1036 on receptor internalization was investigated by scanning laser confocal microscopy and ELISA-based assay. […] The quantification of receptor internalization upon the treatment with the endogenous agonists and with either β-arrestin 2 biased FAUC1036 or G-protein biased FAUC1104 was performed with ELISA based assay. The HEK293T cells transiently expressing FLAG-CXCR3 were stimulated with compounds and chemokines for one hour, washed, fixed and the amount of FLAG-CXCR3 present on the surface was detected by anti-FLAG antibody.

[2] = target: T2, CXCR3 (Homo sapiens, UniProt P49682); assay: [35S]GTPγS incorporation assay; type: biochemical; conditions: for CXCR3 Efficacy (%) ± SEM: % of CXCL11 mediated effect; for CXCR3 Efficacy (%) ± SEM / CXCR3 pEC50 ± SEM: membrane preparations of HEK293T stably expressing CXCR3; for CXCR3 pEC50 ± SEM: mean of three experiments in triplicate; for CXCR3 mediated G protein activation (result in words): [35S]GTPγS incorporation
T2 construct: expressed in transfected cells; host or cells: HEK293 / HEK293T cells, stably transfected; membrane preparations
T2 sequence (P49682 1-368): T1 sequence (P49682 1-368)
Method in brief: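 Membranes from HEK293 cells stably expressing human CXCR3 (30 µg/mL protein) preincubated 30 min at 37 °C with test compound, CXCL11 and 1 µM GDP in HEPES/MgCl2/NaCl/saponin buffer, pH 7.4. Then 0.10 nM [35S]GTPγS added for 30 min at 37 °C; filter-bound radioactivity counted, triplicates, 3–4 experiments.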

[3] = target: T3, CXCR3-eGFP (Homo sapiens, UniProt P49682); assay: Receptor internalization imaging (confocal laser scanning microscopy); type: cell-based; conditions: CXCL11 10 nM; FAUC1036 10 µM and 1 µM; one hour; Figure 4A
T3 construct: expressed in transfected cells; host or cells: HEK293T cells, transient
T3 sequence (P49682 1-368): T1 sequence (P49682 1-368)
Description: Receptor internalization imaging: The day before transfection HEK293T cells were seeded in 6-well plates at a density of 200,000 cells/well. Transient transfection of the C-terminally eGFP-tagged CXCR3 cDNA was performed using TransIT293(MIRUS). Cells were transferred to Poly-L-Lysine coated glass coverslips 24 h after transfection. 2 d after transfection, cells were washed with phosphate buffered saline (PBS) and treated with the endogenous chemokine CXCL11 or compound FAUC1036 at 37°C in 5% CO2 for 60min. Cells were fixed with 4% paraformaldehyde (RotiHistofix, Carl Roth) for 10min. […]
as §1

| CXCR3 Efficacy (%) ± SEM [2] | CXCR3 pEC50 ± SEM [2] | SMILES | receptor internalization (ELISA quantification) [1] | CXCR3 Efficacy (%) ± SEM ([2]; listed as 14/FAUC1104) [%] | CXCR3 Efficacy (%) ± SEM ([2]; listed as FAUC1104) [%] | CXCR3 pEC50 ± SEM ([2]; listed as 14/FAUC1104) | CXCR3 pEC50 ± SEM ([2]; listed as FAUC1104) | Emax ([2]; read-out: CXCR3 Efficacy (%) ± SEM) [%] | CXCR3 internalization (confocal microscopy) [3] | CXCR3 mediated G protein activation (result in words) ([2]; listed as 11/FAUC1036) | CXCR3 mediated G protein activation (result in words) ([2]; listed as FAUC1036) |
| --- | --- | --- | --- | --- | --- | --- | --- | --- | --- | --- | --- |
|  |  | COc1ccc(C(=O)CCC(=O)N2Cc3ccccc3C[C@H]2C(=O)NCCCC[C@H](NC(=O)OC(C)(C)C)C(=O)NCC(c2ccccc2)c2ccccc2)cc1 [Compound 14, Tert-butyl ((S)-1-((2,2-diphenylethyl)amino)-6-((S)-2-(4-(4-methoxyphenyl)-4-oxobutanoyl)-1,2,3,4-tetrahydroisoquinoline-3-carboxamido)-1-oxohexan-2-yl)carbomate] | does not induce receptor internalization | 50±19 | 50 | 5.22±0.31 | 5.22 | 50 |  |  |  |
| No effect | No effect | CC(C)(C)OC(=O)N[C@@H](CCCCNC(=O)[C@@H]1Cc2ccccc2CN1C(=O)CCC(=O)c1ccccc1)C(=O)NCC(c1ccccc1)c1ccccc1 [Compound 11, Tert-butyl ((S)-1-((2,2-diphenylethyl)amino)-1-oxo-6-((S)-2-(4-oxo-4-phenylbutanoyl)-1,2,3,4-tertahydroisoquinoline-3-carboxamido)hexan-2-yl)carbamate] | induced receptor internalization |  |  |  |  |  | induced the CXCR3 internalization; also recorded: led to the internalization of a significant portion of the receptors | failed to induce CXCR3 mediated G protein activation | without any activation of G proteins; also recorded: has no effect on the G-protein signalling |
